Laboratory results from patent US12661338B2, “Heterocyclic compounds as modulators of beta-catenin / TCF4 interaction” (AGENCY FOR SCIENCE, TECHNOLOGY AND RESEARCH, priority 2019, dated 2026).

Columns and labels:
[1] = test system: Hippo pathway TEAD reporter cells; assay: Hippo signalling TEAD reporter dose response; assay type: cell-based; details: 24 hr, inhibition of the Hippo pathway, read-out: IC50 Hippo
Description: The Hippo TEAD reporter cells were seeded as 100,000 cells in 100 μL assay medium per well in 96-well plates (Corning cat. #3903, Falcon cat. #353072). The assay medium consists of the growth medium without G-418. The next day, 5-fold dilutions of the compounds in DMSO were added to the cells at a final concentration of 1% DMSO. After 24 hr incubation, the viability of the cells was determined with CCK-8 cell viability reagent while the luciferase reporter activity was determined with Steady-Glo luciferase reagent.
(§1) The average signal from DMSO treated wells was calculated for each plate, and the signal from each treatment well was normalized against the average DMSO signal from the respective plate. The normalized values were plotted against the concentrations tested using GraphPad Prism 5, and the EC50 values were determined through either three- or four-parameter nonlinear regression.

[2] = test system: CRC1463; assay: Viability of primary patient-derived colorectal cancer cell line; assay type: cell-based
[3] = test system: CRC1850; assay: as above; assay type: cell-based; details: CRC1850, Liver Met
[4] = test system: STF3A cells; assay: Viability (toxicity) of STF3A reporter cells, CCK-8; assay type: cell-based; details: Table 3; STF3A reporter cell line
Description: The Wnt STF3A reporter cells were seeded as 20,000 cells in 100 μL culture medium per well in 96-well plates (Corning cat. #3903, Falcon cat. #353072). The next day, 5-fold dilutions of the compounds in DMSO were added to the cells at a final concentration of 1% DMSO. After 24 hr incubation, the viability of the cells was determined with cell counting kit-8 (CCK-8, Dojindo cat. #CK04) cell viability reagent according to the manufacturer's protocol while the TOPFlash reporter activity was determined with Steady-Glo luciferase reagent.
as §1

[5] = test system: CRC948; assay: Viability of primary patient-derived colorectal cancer cell line; assay type: cell-based
[6] = test system: CRC1707; assay: as above; assay type: cell-based
[7] = test system: CRC1414; assay: as above; assay type: cell-based
[8] = target: T1, β-cat / GST-TCF4 N-terminal domain interaction (Homo sapiens, UniProt P35222); assay: SPR inhibition of β-cat-TCF4 interaction; assay type: binding; details: SPR competition, 50 nM β-cat pre-incubated 15 min, n=2; read-out: IC50 inhibition of interaction between β-cat and TCF4
T1 construct: His-tagged human β-cat (134-668); made in house; host or cells: E. coli BL21(DE3)
T1 sequence (P35222 134-668): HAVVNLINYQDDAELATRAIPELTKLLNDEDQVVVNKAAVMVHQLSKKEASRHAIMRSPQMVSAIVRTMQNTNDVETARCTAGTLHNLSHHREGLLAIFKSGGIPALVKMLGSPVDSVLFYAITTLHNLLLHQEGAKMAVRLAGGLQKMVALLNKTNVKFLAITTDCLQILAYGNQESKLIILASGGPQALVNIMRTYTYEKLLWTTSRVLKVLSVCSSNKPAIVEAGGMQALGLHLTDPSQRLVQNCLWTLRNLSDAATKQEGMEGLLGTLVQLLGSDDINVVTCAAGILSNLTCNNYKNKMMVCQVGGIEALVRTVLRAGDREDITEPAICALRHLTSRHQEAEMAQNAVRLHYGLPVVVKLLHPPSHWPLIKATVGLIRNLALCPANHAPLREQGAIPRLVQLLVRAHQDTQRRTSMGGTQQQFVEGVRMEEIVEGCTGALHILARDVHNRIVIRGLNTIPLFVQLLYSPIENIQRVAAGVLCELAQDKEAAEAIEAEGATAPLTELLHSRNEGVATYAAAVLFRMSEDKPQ
Description: BL21(DE3) cells harboring pET-28 β-cat expression vector of His-tagged human β-cat (134-668) were cultured at 37° C. until OD600=0.6-0.8. The cells were then induced with 500 μM isopropyl-β-D-thiogalactopyranoside (IPTG) for 6-8 hr at 23° C. Cells were lysed by sonication in lysis buffer containing 20 mM Tris (pH 8.8), 250 mM NaCl, 2 mM DTT, 5% glycerol, 0.1% Triton X-100, and cOmplete protease inhibitor cocktail (EDTA free, Roche cat. #11873580001). The lysate was incubated with Ni-NTA agarose beads (Qiagen cat. #30210) at 4° C. for 1 hr, and the beads were then washed with lysis buffer containing 20 mM imidazole. Bound protein was eluted with buffer containing 20 mM Tris (pH 8.8), 250 mM NaCl, 0.5 mM tris(2-carboxyethyl)phosphine (TCEP), 5% glycerol, and 250 mM imidazole.
GST-tagged TCF4 N-terminal domain was expressed similarly in BL21(DE3) cells, induced for 2-4 hr at 23° C. with IPTG, and purified from glutathione agarose beads (Pierce cat. #16100) using buffer containing 20 mM Tris (pH 8.8), 250 mM NaCl, 0.5 mM TCEP, 5% glycerol, and 10 mM reduced glutathione.
GST-tag TCF4 N-terminal domain (31 kDa, >90% pure based on SDS-PAGE) was immobilized on a CM5 series S sensor chip using amine-coupling chemistry. […]

## CCc1ccc(OCc2nnc(SC3CCCC3=O)n2C(C)c2ccccc2)cc1 (centres unmarked) [GB1874]
[1]
  IC50: > 100 µM
[2]
  EC50: 27 µM
[3]
  EC50: 37 µM
[4]
  IC50: 64 µM
[5]
  EC50: 17 µM
[6]
  EC50: 19 µM
[7]
  EC50: 42 µM
[8]
  IC50: 25 ± 8 µM
